# Source: ChEMBL document CHEMBL1125918, “Synthesis of 3-carbamoylecgonine methyl ester analogues as inhibitors of cocaine binding and dopamine uptake” (J Med Chem, 1991)
# Species: Rattus norvegicus
# Assay: Compound was evaluated in vitro, for the ability to inhibit [3H]- dopamine uptake into synaptosomes (prepared from rat striatal tissues).
# Type: functional
# Details: Brain
row,Compound,IC50 [µM]
1,COC(=O)C1C2CC[C@H](C[C@@H]1OC(=O)Nc1cccc([N+](=O)[O-])c1)N2C (stereo partly specified),0.178
2,COC(=O)C1C2CC[C@H](C[C@@H]1OC(=O)Nc1ccc([N+](=O)[O-])cc1)N2C (stereo partly specified),5.7
3,COC(=O)C1C2CC[C@H](C[C@@H]1OC(=O)Nc1ccccc1)N2C (stereo partly specified),52.6
4,COC(=O)C1C2CC[C@H](C[C@@H]1OC(=O)Nc1ccc(N)cc1)N2C (stereo partly specified),> 100
5,COC(=O)C1C2CC[C@H](C[C@@H]1OC(=O)Nc1cccc(N)c1)N2C (stereo partly specified),23.1
6,COC(=O)[C@H]1[C@@H](OC(=O)c2ccccc2)C[C@@H]2CC[C@H]1N2C [COCAINE],0.213
